Test results taken from patent publication US12441733B2, “Substituted 2,4-dioxotetrahydropyrimidines as intermediates in the synthesis of bruton's tyrosine kinase inhibitors” (Novartis AG, priority 2018, dated 2025).

Target: T1, BTK-GFP (Homo sapiens, UniProt Q06187+Q96SW2)
T1 construct: expressed in transfected cells; host or cells: HEK293A (Invitrogen R70507), lentiviral transduction with pLenti6-BTK-GFP-Ires-RFP, blasticidin selection
Test: BTK-GFP protein abundance flow cytometry assay in HEK293A cells
Type: cell-based
Conditions: HEK293A BTK-GFP-iresRFP cells, 24 h; for DC50: GFP signal by flow cytometry, concentration at which 50% maximal degradation was observed; for BTK deg Amax: % protein remaining at the concentration at which maximum degradation is seen
How it was run: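 HEK293A cells stably expressing bicistronic BTK-GFP-IRES-RFP (C-terminal GFP tag) via lentiviral vector. Degradation read by flow cytometry as loss of GFP signal after degrader treatment. DC50 is concentration giving 50% maximal degradation; Amax is % protein remaining at maximal degradation.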

T1 sequence (Q06187 whole entry): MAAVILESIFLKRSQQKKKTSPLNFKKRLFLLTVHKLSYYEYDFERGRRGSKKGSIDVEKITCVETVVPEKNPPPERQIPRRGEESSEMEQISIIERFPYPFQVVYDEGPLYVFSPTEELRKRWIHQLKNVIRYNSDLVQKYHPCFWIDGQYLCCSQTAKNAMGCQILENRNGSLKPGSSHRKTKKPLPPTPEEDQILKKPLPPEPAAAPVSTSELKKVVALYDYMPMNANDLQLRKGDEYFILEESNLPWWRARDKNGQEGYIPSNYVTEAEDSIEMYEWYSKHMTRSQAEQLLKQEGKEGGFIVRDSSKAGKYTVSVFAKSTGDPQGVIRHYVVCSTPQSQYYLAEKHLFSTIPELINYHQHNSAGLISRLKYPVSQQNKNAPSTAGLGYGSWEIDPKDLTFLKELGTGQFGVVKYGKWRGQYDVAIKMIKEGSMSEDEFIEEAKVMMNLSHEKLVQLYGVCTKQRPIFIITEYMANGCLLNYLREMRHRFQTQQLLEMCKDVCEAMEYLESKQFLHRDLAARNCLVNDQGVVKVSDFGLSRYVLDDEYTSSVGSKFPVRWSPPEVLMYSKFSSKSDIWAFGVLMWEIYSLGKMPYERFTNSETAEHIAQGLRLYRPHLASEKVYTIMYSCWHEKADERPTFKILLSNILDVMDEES
T1 sequence (Q96SW2 whole entry): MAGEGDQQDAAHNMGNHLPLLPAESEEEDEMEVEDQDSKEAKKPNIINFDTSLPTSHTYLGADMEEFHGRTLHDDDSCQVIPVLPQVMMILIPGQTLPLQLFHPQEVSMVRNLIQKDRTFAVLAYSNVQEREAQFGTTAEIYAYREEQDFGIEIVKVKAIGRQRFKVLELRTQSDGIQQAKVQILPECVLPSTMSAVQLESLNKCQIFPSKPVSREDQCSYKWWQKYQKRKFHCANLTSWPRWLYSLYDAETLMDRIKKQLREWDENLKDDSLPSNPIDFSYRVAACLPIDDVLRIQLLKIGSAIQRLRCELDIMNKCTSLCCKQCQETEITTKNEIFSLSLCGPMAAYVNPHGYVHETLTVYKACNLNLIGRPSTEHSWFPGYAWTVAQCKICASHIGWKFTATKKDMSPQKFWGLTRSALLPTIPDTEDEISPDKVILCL
T1 sequence (Q16531 whole entry partner): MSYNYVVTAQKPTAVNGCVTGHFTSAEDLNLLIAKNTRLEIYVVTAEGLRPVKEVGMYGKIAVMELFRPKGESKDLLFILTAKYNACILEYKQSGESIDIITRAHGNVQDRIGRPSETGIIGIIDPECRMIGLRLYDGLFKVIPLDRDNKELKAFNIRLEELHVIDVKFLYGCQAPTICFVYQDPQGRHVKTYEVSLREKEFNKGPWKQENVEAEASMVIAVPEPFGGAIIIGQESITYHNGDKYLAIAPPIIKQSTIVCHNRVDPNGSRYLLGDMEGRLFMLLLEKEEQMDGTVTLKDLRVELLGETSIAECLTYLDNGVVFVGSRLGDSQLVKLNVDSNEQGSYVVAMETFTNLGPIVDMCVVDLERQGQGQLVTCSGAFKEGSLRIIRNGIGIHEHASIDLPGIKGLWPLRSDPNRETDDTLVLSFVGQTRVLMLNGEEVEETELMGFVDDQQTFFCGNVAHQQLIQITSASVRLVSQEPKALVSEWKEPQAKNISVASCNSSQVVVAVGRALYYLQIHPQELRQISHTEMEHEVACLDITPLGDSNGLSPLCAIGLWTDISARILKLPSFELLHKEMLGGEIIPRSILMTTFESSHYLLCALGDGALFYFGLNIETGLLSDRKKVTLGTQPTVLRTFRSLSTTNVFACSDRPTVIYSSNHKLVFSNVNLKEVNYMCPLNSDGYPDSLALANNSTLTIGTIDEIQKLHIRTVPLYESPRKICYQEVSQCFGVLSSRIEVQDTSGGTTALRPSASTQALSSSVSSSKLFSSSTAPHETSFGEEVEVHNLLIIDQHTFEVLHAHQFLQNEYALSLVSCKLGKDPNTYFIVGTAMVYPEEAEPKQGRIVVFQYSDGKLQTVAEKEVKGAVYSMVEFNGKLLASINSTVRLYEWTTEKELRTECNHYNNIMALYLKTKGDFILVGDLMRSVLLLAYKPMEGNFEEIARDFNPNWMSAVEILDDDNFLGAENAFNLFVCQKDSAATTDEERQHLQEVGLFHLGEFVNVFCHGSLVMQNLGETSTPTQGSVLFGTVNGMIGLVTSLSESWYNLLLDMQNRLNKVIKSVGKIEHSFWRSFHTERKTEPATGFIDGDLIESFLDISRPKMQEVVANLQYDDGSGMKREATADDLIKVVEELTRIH

COc1ccc(C(=O)N2CCN(CCCCNCc3ccc(-c4cc5c(-c6cc(F)cc(NC(=O)c7ccc(C(C)(C)O)cc7F)c6C)ncnc5[nH]4)cc3)CC2)cc1N1CCC(=O)NC1=O [Compound 40, N-(3-(6-(4-(((4-(4-(3-(2,4-dioxotetrahydropyrimidin-1(2H)-yl)-4-methoxybenzoyl)piperazin-1-yl)butyl)amino)methyl)phenyl)-7H-pyrrolo[2,3-d]pyrimidin-4-yl)-5-fluoro-2-methylphenyl)-2-fluoro-4-(2-hydroxypropan-2-yl)benzamide]
DC50: 0.0532 µM | BTK deg Amax: 4.6%

COc1ccc(C(=O)NCCN2CCC3(CC2)CCN(Cc2ccc(-c4cc5c(-c6cc(F)cc(NC(=O)c7ccc(C(C)(C)O)cc7F)c6C)ncnc5[nH]4)cc2)CC3)cc1N1CCC(=O)NC1=O [Compound 44, N-(3-(6-(4-((9-(2-(3-(2,4-dioxotetrahydropyrimidin-1(2H)-yl)-4-methoxybenzamido)ethyl)-3,9-diazaspiro[5.5]undecan-3-yl)methyl)phenyl)-7H-pyrrolo[2,3-d]pyrimidin-4-yl)-5-fluoro-2-methylphenyl)-2-fluoro-4-(2-hydroxypropan-2-yl)benzamide]
DC50: 0.235 µM | BTK deg Amax: 48.4%

Cc1c(NC(=O)c2ccc(C(C)(C)O)cc2F)cc(F)cc1-c1ncnc2[nH]c(-c3ccc(CCN4CCC5(CC4)CCN(C(=O)c4ccc(F)c(N6CCC(=O)NC6=O)c4)CC5)cc3)cc12 [Compound 47, N-(3-(6-(4-(2-(9-(3-(2,4-dioxotetrahydropyrimidin-1(2H)-yl)-4-fluorobenzoyl)-3,9-diazaspiro[5.5]undecan-3-yl)ethyl)phenyl)-7H-pyrrolo[2,3-d]pyrimidin-4-yl)-5-fluoro-2-methylphenyl)-2-fluoro-4-(2-hydroxypropan-2-yl)benzamide]
DC50: 0.0022 µM | BTK deg Amax: 6.7%
